≈ marks a conversion by molar mass, not a printed value. Bridge positions count the residues as written; N and C are the ends. Square brackets hold non-standard residues; d marks the D form. Peptide text beside a SMILES is read from it. * marks the point of attachment. Decanoyl(3R-OH) = CCCCCCC[C@@H](O)CC(=O)*; dDab = NCC[C@@H](N)C(=O)O; Dab = NCC[C@H](N)C(=O)O

In series [1] the test system is Escherichia coli. Nature of the series: Antibacterial activity against KPC producing Escherichia coli ATCC BAA-2340 assessed as inhibition of bacterial growth incubated for 18 to 24 hrs by broth microdilution method. It is filed as functional. To be noted: time 18-24 hrs.
Series [2] has as its system Pseudomonas aeruginosa. Kind of series: Antibacterial activity against carbapenem resistant Pseudomonas aeruginosa clinical isolate 19-3 assessed as inhibition of bacterial growth incubated for 18 to 24 hrs by broth microdilution method. It is filed as functional. To be noted: time 18-24 hrs. (In general: In broth dilution the organism is exposed to a series of concentrations in liquid medium.)

The test system of series [3] is Escherichia coli. Kind of series: Antibacterial activity against Escherichia coli ATCC BAA-2523 assessed as inhibition of bacterial growth incubated for 18 to 24 hrs by broth microdilution method. The format is functional. To be noted: time 18-24 hrs.
Series [4] relates to Escherichia coli. Nature of the series: Antibacterial activity against Escherichia coli NCTC 13353 assessed as inhibition of bacterial growth incubated for 18 to 24 hrs by broth microdilution method. To be noted: time 18-24 hrs. It is filed as functional.
For series [5], the system named is Escherichia coli. Kind of series: Antibacterial activity against Escherichia coli clinical isolate 19-2 assessed as inhibition of bacterial growth incubated for 18 to 24 hrs by broth microdilution method. The format is functional. To be noted: time 18-24 hrs.
The subject of series [6] is Pseudomonas aeruginosa. Kind of series: Antibacterial activity against Pseudomonas aeruginosa clinical isolate 19-1 assessed as inhibition of bacterial growth incubated for 18 to 24 hrs by broth microdilution method. It is filed as functional. To be noted: time 18-24 hrs.
A short description of series [7]: Selectivity index, ratio of IC50 for cytotoxicity against human HK-2 cells to MIC for antibacterial activity against Escherichia coli ATCC BAA-2523. It is filed as toxicity, cell-based.
A short description of series [8]: Cytotoxicity against human HK-2 cells assessed as inhibition of cell growth incubated for 72 hrs by CCK-8 assay. It is filed as toxicity, cell-based. (Tetrazolium assays rely on reduction of a dye to a coloured formazan, in cell work by metabolically active cells.)
The subject of series [9] is Pseudomonas aeruginosa. Kind of series: Antibacterial activity against carbapenem resistant Pseudomonas aeruginosa clinical isolate 17-1 assessed as inhibition of bacterial growth incubated for 18 to 24 hrs by broth microdilution method. It is filed as functional. To be noted: time 18-24 hrs.
Series [10] has as its system Staphylococcus epidermidis. Kind of series: Antibacterial activity against methicillin resistant Staphylococcus epidermidis clinical isolate 19-5 assessed as inhibition of bacterial growth incubated for 18 to 24 hrs by broth microdilution method. It is filed as functional. To be noted: time 18-24 hrs.
For series [11], the system named is Staphylococcus aureus. Nature of the series: Antibacterial activity against Staphylococcus aureus ATCC 29213 assessed as inhibition of bacterial growth incubated for 18 to 24 hrs by broth microdilution method. To be noted: time 18-24 hrs. It is filed as functional.
In series [12] the test system is Pseudomonas aeruginosa. Kind of series: Antibacterial activity against Pseudomonas aeruginosa ATCC 27853 assessed as inhibition of bacterial growth incubated for 18 to 24 hrs by broth microdilution method. The format is functional. To be noted: time 18-24 hrs.
In series [13] the test system is Acinetobacter baumannii. Nature of the series: Antibacterial activity against oxacillinase-27 producing Acinetobacter baumannii NCTC 13304 assessed as inhibition of bacterial growth incubated for 18 to 24 hrs by broth microdilution method. It is filed as functional. To be noted: time 18-24 hrs.
Series [14] concerns Staphylococcus aureus. Kind of series: Antibacterial activity against methicillin resistant Staphylococcus aureus ATCC 33591 assessed as inhibition of bacterial growth incubated for 18 to 24 hrs by broth microdilution method. It is filed as functional. To be noted: time 18-24 hrs.
Series [15] has as its system Klebsiella pneumoniae. Nature of the series: Antibacterial activity against carbapenem resistant Klebsiella pneumoniae clinical isolate 19-15 assessed as inhibition of bacterial growth incubated for 18 to 24 hrs by broth microdilution method. To be noted: time 18-24 hrs. It is filed as functional.
For series [16], the system named is Klebsiella pneumoniae. Nature of the series: Antibacterial activity against carbapenem resistant Klebsiella pneumoniae clinical isolate 19-17 assessed as inhibition of bacterial growth incubated for 18 to 24 hrs by broth microdilution method. The format is functional. To be noted: time 18-24 hrs.
Series [17] relates to Klebsiella pneumoniae. Nature of the series: Antibacterial activity against KPC producing Klebsiella pneumoniae ATCC BAA-1705 assessed as inhibition of bacterial growth incubated for 18 to 24 hrs by broth microdilution method. The format is functional. To be noted: time 18-24 hrs.
For series [18], the system named is Acinetobacter baumannii. Nature of the series: Antibacterial activity against carbapenem resistant Acinetobacter baumannii clinical isolate 19-8 assessed as inhibition of bacterial growth incubated for 18 to 24 hrs by broth microdilution method. To be noted: time 18-24 hrs. The format is functional.
The subject of series [19] is Staphylococcus epidermidis. Nature of the series: Antibacterial activity against methicillin resistant Staphylococcus epidermidis clinical isolate 19-6 assessed as inhibition of bacterial growth incubated for 18 to 24 hrs by broth microdilution method. To be noted: time 18-24 hrs. The format is functional.

As for `CCCCCCCCCC(=O)N[C@H](CCN)C(=O)N[C@H]1CCNC(=O)[C@H]([C@@H](C)O)NC(=O)[C@H](CCN)NC(=O)[C@H](CCN)NC(=O)[C@H](CCCCCCCC)NC(=O)[C@@H](CC(C)C)NC(=O)[C@H](CCN)NC1=O`, the MIC – broadly, the smallest concentration in the dilution series that meets the test's criterion for growth inhibition – was 1 µg/mL (≈ 0.963 µM) in series [1]; 2 µg/mL (≈ 1.93 µM) in [2]; 1 µg/mL (≈ 0.963 µM) in series [3]; 2 µg/mL (≈ 1.93 µM) in series [4]; 1 µg/mL (≈ 0.963 µM) in series [5]; 2 µg/mL (≈ 1.93 µM) in series [6]. The MIC stood at 4 µg/mL (≈ 3.85 µM) in series [9]; 1 µg/mL (≈ 0.963 µM) in series [10]; 8 µg/mL (≈ 7.7 µM) in series [11]; 2 µg/mL (≈ 1.93 µM) in series [12]; 4 µg/mL (≈ 3.85 µM) in series [13]; 8 µg/mL (≈ 7.7 µM) in series [14]. In addition, the MIC in series [15] was 2 µg/mL (≈ 1.93 µM); in series [16], 2 µg/mL (≈ 1.93 µM); in [17] it was 2 µg/mL (≈ 1.93 µM); in series [18], 8 µg/mL (≈ 7.7 µM); in series [19], 2 µg/mL (≈ 1.93 µM). For the same compound, the selectivity ratio in series [7] was 9.1. In series [8], the concentration for half-maximal inhibition (IC50) (as a rule, the concentration that gives 50% inhibition) at 72 h was found to be 9.1 µg/mL (≈ 8.76 µM).

As to `CCCCCCCCCC(=O)N[C@H](CCN)C(=O)N[C@H]1CCNC(=O)[C@H](CC(C)C)NC(=O)[C@H](CCN)NC(=O)[C@H](CCN)NC(=O)[C@H](CC(C)C)NC(=O)[C@@H](CC(C)C)NC(=O)[C@H](CCN)NC1=O`, the MIC in series [1] was 4 µg/mL (≈ 4.02 µM); in series [2], 8 µg/mL (≈ 8.05 µM); in series [3], 16 µg/mL (≈ 16.1 µM); in series [4] it was 16 µg/mL (≈ 16.1 µM); in [5] it was 16 µg/mL (≈ 16.1 µM); in series [6] it was 2 µg/mL (≈ 2.01 µM). Also, the minimal inhibitory concentration (MIC) was determined as 2 µg/mL (≈ 2.01 µM) in series [9]; 2 µg/mL (≈ 2.01 µM) in series [10]; 32 µg/mL (≈ 32.2 µM) in series [11]; 1 µg/mL (≈ 1.01 µM) in [12]; 8 µg/mL (≈ 8.05 µM) in series [13]; 64 µg/mL (≈ 64.4 µM) in [14]. Besides, the MIC in [15] stood at 8 µg/mL (≈ 8.05 µM); in series [16], 16 µg/mL (≈ 16.1 µM); in series [17] it was 2 µg/mL (≈ 2.01 µM); in series [18], 4 µg/mL (≈ 4.02 µM); in [19] it was 8 µg/mL (≈ 8.05 µM). Moreover, the selectivity ratio in [7] came out at 3.3. Moreover, the concentration for half-maximal inhibition (IC50) at 72 h in series [8] is 53.5 µg/mL (≈ 53.8 µM).

Turning to `CCCCCCC[C@@H](O)CC(=O)N[C@H](CCN)C(=O)N[C@H]1CCNC(=O)[C@H]([C@@H](C)O)NC(=O)[C@H](CCN)NC(=O)[C@H](CCN)NC(=O)[C@H](CC(C)C)NC(=O)[C@@H](Cc2ccccc2)NC(=O)[C@H](CCN)NC1=O` ({Decanoyl(3R-OH)}-[dDab][Dab][Dab][dF]L[Dab][Dab]T; lactam 2-C), the MIC in [1] amounted to 1 µg/mL (≈ 0.969 µM); in series [2] it was 1 µg/mL (≈ 0.969 µM); in [3], 1 µg/mL (≈ 0.969 µM); in series [4], 4 µg/mL (≈ 3.87 µM); in series [5], 2 µg/mL (≈ 1.94 µM); in [6] it was 0.5 µg/mL (≈ 0.484 µM). Besides, the minimum inhibitory concentration (MIC) in series [9] was 0.5 µg/mL (≈ 0.484 µM); in [10], 8 µg/mL (≈ 7.75 µM); in [11], more than 64 µg/mL; in series [12], 0.5 µg/mL (≈ 0.484 µM); in series [13] it was 32 µg/mL (≈ 31 µM); in series [14], more than 64 µg/mL. The minimum inhibitory concentration (MIC) was determined as 2 µg/mL (≈ 1.94 µM) in [15]; 4 µg/mL (≈ 3.87 µM) in [16]; 0.5 µg/mL (≈ 0.484 µM) in [17]; 32 µg/mL (≈ 31 µM) in series [18]; 32 µg/mL (≈ 31 µM) in series [19]. Also, the selectivity ratio in series [7] came to 125. In series [8], the IC50 at 72 h was found to be 125 µg/mL (≈ 121 µM).

Turning to `CCCCCCC[C@@H](O)CC(=O)N[C@H](CO)C(=O)N[C@H](CCN)C(=O)N[C@H]1CCNC(=O)[C@H](CC(C)C)NC(=O)[C@H](CCN)NC(=O)[C@H](CCN)NC(=O)[C@H](Cc2ccccc2)NC(=O)[C@@H](CC(C)C)NC(=O)[C@H](CCN)NC1=O`, the MIC in series [1] was 4 µg/mL (≈ 3.54 µM); in series [2], 2 µg/mL (≈ 1.77 µM); in series [3], 4 µg/mL (≈ 3.54 µM); in series [4], 16 µg/mL (≈ 14.1 µM); in [5], 16 µg/mL (≈ 14.1 µM); in series [6] it was 8 µg/mL (≈ 7.07 µM). Besides, the minimum inhibitory concentration (MIC) in series [9] came out at 2 µg/mL (≈ 1.77 µM); in series [10] it was 2 µg/mL (≈ 1.77 µM); in series [11], 64 µg/mL (≈ 56.6 µM); in [12], 2 µg/mL (≈ 1.77 µM); in [13] it was 8 µg/mL (≈ 7.07 µM); in series [14], 64 µg/mL (≈ 56.6 µM). For the same compound, the minimal inhibitory concentration (MIC) in series [15] is 4 µg/mL (≈ 3.54 µM); in series [16], 8 µg/mL (≈ 7.07 µM); in series [17], 2 µg/mL (≈ 1.77 µM); in [18] it was 16 µg/mL (≈ 14.1 µM); in [19], 8 µg/mL (≈ 7.07 µM). In addition, the selectivity ratio in series [7] came out at 13.9. The IC50 at 72 h in series [8] was determined as 55.4 µg/mL (≈ 49 µM).

`CCCCCCCCCC(=O)N[C@H](CCN)C(=O)N[C@H]1CCNC(=O)[C@H]([C@@H](C)O)NC(=O)[C@H](CCN)NC(=O)[C@H](CCN)NC(=O)[C@H](CC(C)C)NC(=O)[C@H](CC(C)C)NC(=O)[C@H](CCN)NC1=O`: the minimum inhibitory concentration (MIC) was 64 µg/mL (≈ 65.2 µM) in series [1]; more than 64 µg/mL in series [2]; more than 64 µg/mL in [3]; more than 64 µg/mL in series [4]; more than 64 µg/mL in series [5]; more than 64 µg/mL in [6]. For the same compound, the minimum inhibitory concentration (MIC) in series [9] is more than 64 µg/mL; in [10], 4 µg/mL (≈ 4.07 µM); in series [11], more than 64 µg/mL; in series [12] it was more than 64 µg/mL; in series [13], more than 64 µg/mL; in series [14], more than 64 µg/mL. The MIC in [15] is more than 64 µg/mL; in [16], more than 64 µg/mL; in series [17], more than 64 µg/mL; in series [18], more than 64 µg/mL; in [19] it was 16 µg/mL (≈ 16.3 µM). Moreover, the selectivity ratio in series [7] was less than 0.9. The IC50 at 72 h in series [8] was 58.7 µg/mL (≈ 59.8 µM).
